Where a SMILES comes first, the peptide text is derived from it. Bridges are numbered along the chain shown (N, C = ends).
Test: Determination of the protein binding (90% serum, 30 kDa filter, HPLC)
Assay type: in vitro ADME
Conditions: serum
Protocol: Protein binding assays were performed as follows. The purified peptides were mixed with 90% serum and centrifuged through a 30 kDa filter. The ultra-filtrate and the non filtrated serum samples were quantified by HPLC measurements and the protein binding was subsequently calculated.

Row | SMILES | fraction unbound
1 | CC(C)[C@@H]1NC(=O)CNC(=O)[C@H](CC(N)=O)NC(=O)[C@H](CCCNC(=N)N)NC(=O)[C@H](Cc2ccc(O)cc2)NC(=O)[C@H](C(C)C)NC(=O)[C@@H]2CSSC[C@H](NC(=O)[C@H](C(C)C)NC(=O)[C@H](CCCNC(=N)N)NC1=O)C(=O)N[C@@H](CCCCN)C(=O)N[C@@H](CCCNC(=N)N)C(=O)N[C@@H](CCCNC(=N)N)C(=O)N[C@H](C(=O)N[C@@H](CC(N)=O)C(=O)O)CSSC[C@H](NC(=O)[C@H](Cc1ccccc1)NC(=O)CN)C(=O)N[C@@H](Cc1c[nH]c3ccccc13)C(=O)N[C@@H](Cc1ccc(O)cc1)C(=O)N[C@@H](C(C)C)C(=O)N2 [compound 47] (H-GFCWYVCVYRNGVRVCKRRCN-OH; disulfide 3-20, 7-16 (inferred); N-terminus and C-terminus assumed) | 0.11
2 | CC(C)[C@@H]1NC(=O)CNC(=O)[C@H](CC(N)=O)NC(=O)[C@H](CCCNC(=N)N)NC(=O)[C@H](Cc2ccc(O)cc2)NC(=O)[C@H](C(C)C)NC(=O)[C@@H]2CSSC[C@H](NC(=O)[C@H](C(C)C)NC(=O)[C@H](CCCNC(=N)N)NC1=O)C(=O)N[C@@H](CC(N)=O)C(=O)N[C@@H](CCCNC(=N)N)C(=O)N[C@@H](CCCNC(=N)N)C(=O)N[C@H](C(=O)N[C@@H](CC(N)=O)C(=O)O)CSSC[C@H](NC(=O)[C@H](Cc1ccccc1)NC(=O)CN)C(=O)N[C@@H](Cc1c[nH]c3ccccc13)C(=O)N[C@@H](Cc1ccc(O)cc1)C(=O)N[C@@H](C(C)C)C(=O)N2 [compound 48] (H-GFCWYVCVYRNGVRVCNRRCN-OH; disulfide 3-20, 7-16 (inferred); N-terminus and C-terminus assumed) | 0.32
3 | CC(C)[C@@H]1NC(=O)CNC(=O)[C@H](CC(N)=O)NC(=O)[C@H](CCCNC(=N)N)NC(=O)[C@H](Cc2ccc(O)cc2)NC(=O)[C@H](C(C)C)NC(=O)[C@@H]2CSSC[C@H](NC(=O)[C@H](C(C)C)NC(=O)[C@H](CCCNC(=N)N)NC1=O)C(=O)N[C@@H](Cc1ccc(O)cc1)C(=O)N[C@@H](CCCNC(=N)N)C(=O)N[C@@H](CCCNC(=N)N)C(=O)N[C@H](C(=O)N[C@@H](CO)C(=O)O)CSSC[C@H](NC(=O)[C@H](Cc1ccccc1)NC(=O)CN)C(=O)N[C@@H](Cc1c[nH]c3ccccc13)C(=O)N[C@@H](Cc1ccc(O)cc1)C(=O)N[C@@H](C(C)C)C(=O)N2 [compound 53] (H-GFCWYVCVYRNGVRVCYRRCS-OH; disulfide 3-20, 7-16 (inferred); N-terminus and C-terminus assumed) | 0.01
4 | CC(C)[C@@H]1NC(=O)CNC(=O)[C@H](CC(N)=O)NC(=O)[C@H](CCCNC(=N)N)NC(=O)[C@H](Cc2ccc(O)cc2)NC(=O)[C@H](C(C)C)NC(=O)[C@@H]2CSSC[C@H](NC(=O)[C@H](C(C)C)NC(=O)[C@H](CCCNC(=N)N)NC1=O)C(=O)N[C@@H](Cc1ccc(O)cc1)C(=O)N[C@@H](CCCNC(=N)N)C(=O)N[C@@H](CCCNC(=N)N)C(=O)N[C@H](C(=O)N[C@H](C(=O)O)[C@@H](C)O)CSSC[C@H](NC(=O)[C@H](Cc1ccccc1)NC(=O)CN)C(=O)N[C@@H](Cc1c[nH]c3ccccc13)C(=O)N[C@@H](Cc1ccc(O)cc1)C(=O)N[C@@H](C(C)C)C(=O)N2 [compound 54] (H-GFCWYVCVYRNGVRVCYRRCT-OH; disulfide 3-20, 7-16 (inferred); N-terminus and C-terminus assumed) | 0.01
5 | CC(C)[C@@H]1NC(=O)CNC(=O)[C@H](CC(N)=O)NC(=O)[C@H](CCCNC(=N)N)NC(=O)[C@H](Cc2ccc(O)cc2)NC(=O)[C@H](C(C)C)NC(=O)[C@@H]2CSSC[C@H](NC(=O)[C@H](C(C)C)NC(=O)[C@H](CCCNC(=N)N)NC1=O)C(=O)N[C@@H](CCCNC(=N)N)C(=O)N[C@@H](CCCNC(=N)N)C(=O)N[C@@H](CCCNC(=N)N)C(=O)N[C@H](C(=O)N[C@@H](CC(N)=O)C(=O)O)CSSC[C@H](NC(=O)[C@H](Cc1ccccc1)NC(=O)CN)C(=O)N[C@@H](Cc1ccccc1)C(=O)N[C@@H](Cc1ccc(O)cc1)C(=O)N[C@@H](C(C)C)C(=O)N2 [compound 56] (H-GFCFYVCVYRNGVRVCRRRCN-OH; disulfide 3-20, 7-16 (inferred); N-terminus and C-terminus assumed) | 0.06
6 | CC(C)[C@@H]1NC(=O)CNC(=O)[C@H](CC(N)=O)NC(=O)[C@H](CCCNC(=N)N)NC(=O)[C@H](Cc2ccc(O)cc2)NC(=O)[C@H](C(C)C)NC(=O)[C@@H]2CSSC[C@H](NC(=O)[C@H](C(C)C)NC(=O)[C@H](CCCNC(=N)N)NC1=O)C(=O)N[C@@H](Cc1ccc(O)cc1)C(=O)N[C@@H](CCCNC(=N)N)C(=O)N[C@@H](CCCNC(=N)N)C(=O)N[C@H](C(=O)N[C@@H](CC(N)=O)C(=O)O)CSSC[C@H](NC(=O)[C@H](Cc1ccccc1)NC(=O)CN)C(=O)NCC(=O)N[C@@H](Cc1c[nH]cn1)C(=O)N[C@@H](C(C)C)C(=O)N2 [compound 60] (H-GFCGHVCVYRNGVRVCYRRCN-OH; disulfide 3-20, 7-16 (inferred); N-terminus and C-terminus assumed) | 0.36
7 | CC(C)[C@@H]1NC(=O)CNC(=O)[C@H](CC(N)=O)NC(=O)[C@H](CCCNC(=N)N)NC(=O)[C@H](Cc2ccc(O)cc2)NC(=O)[C@H](C(C)C)NC(=O)[C@@H]2CSSC[C@H](NC(=O)[C@H](C(C)C)NC(=O)[C@H](CCCNC(=N)N)NC1=O)C(=O)N[C@@H](Cc1ccc(O)cc1)C(=O)N[C@@H](CCCNC(=N)N)C(=O)N[C@@H](CCCNC(=N)N)C(=O)N[C@H](C(=O)N[C@@H](CC(N)=O)C(=O)O)CSSC[C@H](NC(=O)[C@H](Cc1ccccc1)NC(=O)CN)C(=O)NCC(=O)N[C@@H](CCCNC(=N)N)C(=O)N[C@@H](C(C)C)C(=O)N2 [compound 61] (H-GFCGRVCVYRNGVRVCYRRCN-OH; disulfide 3-20, 7-16 (inferred); N-terminus and C-terminus assumed) | 0.28
8 | CC(C)[C@@H]1NC(=O)CNC(=O)[C@H](CC(N)=O)NC(=O)[C@H](CCCNC(=N)N)NC(=O)[C@H](Cc2ccc(O)cc2)NC(=O)[C@H](C(C)C)NC(=O)[C@@H]2CSSC[C@H](NC(=O)[C@H](C(C)C)NC(=O)[C@H](CCCNC(=N)N)NC1=O)C(=O)N[C@@H](CO)C(=O)N[C@@H](CCCNC(=N)N)C(=O)N[C@@H](CCCNC(=N)N)C(=O)N[C@H](C(=O)N[C@@H](CC(N)=O)C(=O)O)CSSC[C@H](NC(=O)[C@H](Cc1ccccc1)NC(=O)CN)C(=O)N[C@@H](Cc1c[nH]c3ccccc13)C(=O)N[C@@H](CCCCN)C(=O)N[C@@H](C(C)C)C(=O)N2 [compound 68] (H-GFCWKVCVYRNGVRVCSRRCN-OH; disulfide 3-20, 7-16 (inferred); N-terminus and C-terminus assumed) | 0.13
9 | CC(C)[C@@H]1NC(=O)CNC(=O)[C@H](CC(N)=O)NC(=O)[C@H](CCCNC(=N)N)NC(=O)[C@H](Cc2ccc(O)cc2)NC(=O)[C@H](C(C)C)NC(=O)[C@@H]2CSSC[C@H](NC(=O)[C@H](C(C)C)NC(=O)[C@H](CCCNC(=N)N)NC1=O)C(=O)N[C@@H](Cc1c[nH]cn1)C(=O)N[C@@H](CCCNC(=N)N)C(=O)N[C@@H](CCCNC(=N)N)C(=O)N[C@H](C(=O)N[C@@H](CC(N)=O)C(=O)O)CSSC[C@H](NC(=O)[C@H](Cc1ccccc1)NC(=O)CN)C(=O)N[C@@H](Cc1c[nH]c3ccccc13)C(=O)N[C@@H](CC(N)=O)C(=O)N[C@@H](C(C)C)C(=O)N2 [compound 70] (H-GFCWNVCVYRNGVRVCHRRCN-OH; disulfide 3-20, 7-16 (inferred); N-terminus and C-terminus assumed) | 0.21
10 | CC(C)[C@@H]1NC(=O)CNC(=O)[C@H](CC(N)=O)NC(=O)[C@H](CCCNC(=N)N)NC(=O)[C@H](Cc2ccc(O)cc2)NC(=O)[C@H](C(C)C)NC(=O)[C@@H]2CSSC[C@H](NC(=O)[C@H](C(C)C)NC(=O)[C@H](CCCNC(=N)N)NC1=O)C(=O)N[C@@H](Cc1ccc(O)cc1)C(=O)N[C@@H](CCCNC(=N)N)C(=O)N[C@@H](CCCNC(=N)N)C(=O)N[C@H](C(=O)N[C@@H](CC(N)=O)C(=O)O)CSSC[C@H](NC(=O)[C@H](Cc1ccccc1)NC(=O)CN)C(=O)N[C@@H](Cc1c[nH]c3ccccc13)C(=O)N[C@@H](CCCNC(=N)N)C(=O)N[C@@H](C)C(=O)N2 [compound 72] (H-GFCWRACVYRNGVRVCYRRCN-OH; disulfide 3-20, 7-16 (inferred); N-terminus and C-terminus assumed) | 0.03
11 | CC(C)[C@@H]1NC(=O)CNC(=O)[C@H](CC(N)=O)NC(=O)[C@H](CCCNC(=N)N)NC(=O)[C@H](Cc2ccc(O)cc2)NC(=O)[C@H](Cc2c[nH]cn2)NC(=O)[C@@H]2CSSC[C@H](NC(=O)[C@H](C(C)C)NC(=O)[C@H](CCCNC(=N)N)NC1=O)C(=O)N[C@@H](Cc1ccc(O)cc1)C(=O)N[C@@H](CCCNC(=N)N)C(=O)N[C@@H](CCCNC(=N)N)C(=O)N[C@H](C(=O)N[C@@H](CC(N)=O)C(=O)O)CSSC[C@H](NC(=O)[C@H](Cc1ccccc1)NC(=O)CN)C(=O)N[C@@H](Cc1c[nH]c3ccccc13)C(=O)N[C@@H](CCCNC(=N)N)C(=O)N[C@@H](C(C)C)C(=O)N2 [compound 74] (H-GFCWRVCHYRNGVRVCYRRCN-OH; disulfide 3-20, 7-16 (inferred); N-terminus and C-terminus assumed) | 0.01
12 | CC(C)[C@@H]1NC(=O)CNC(=O)[C@H](CC(N)=O)NC(=O)[C@H](CCCNC(=N)N)NC(=O)[C@H](Cc2ccc(O)cc2)NC(=O)[C@H](C(C)C)NC(=O)[C@@H]2CSSC[C@H](NC(=O)[C@H](C(C)C)NC(=O)[C@H](CCCNC(=N)N)NC1=O)C(=O)N[C@@H](Cc1c[nH]cn1)C(=O)N[C@@H](CCCNC(=N)N)C(=O)N[C@@H](CCCNC(=N)N)C(=O)N[C@H](C(=O)N[C@@H](CC(N)=O)C(=O)O)CSSC[C@H](NC(=O)[C@H](Cc1ccccc1)NC(=O)CN)C(=O)N[C@@H](Cc1c[nH]c3ccccc13)C(=O)N[C@@H](CCCNC(=N)N)C(=O)N[C@@H](C(C)C)C(=O)N2 [compound 76] (H-GFCWRVCVYRNGVRVCHRRCN-OH; disulfide 3-20, 7-16 (inferred); N-terminus and C-terminus assumed) | 0.08

— patent US20160158317A1, “Antimicrobial Peptide Variants and Polynucleotides Encoding Same” (Adenium Biotech A/S, priority 2010, published 2016)
